Measured values reported in patent US6884819B1, “Neuropathy remedies” (Teijin Limited, priority 1999, dated 2005).

Legend:
Wistar rats = experiment: Measurement of blood pressure lowering action (blood pressure and heart rate after intravenous injection without anesthesia); type: in vivo; parameters: Blood pressure (mmHg, ± standard error): unit not given here; conditions: for Blood pressure (mmHg, ± standard error): 0 min. value assigned 100
Protocol: Thirty five, male Wistar rats.
Cannulas were inserted into the left carotid artery for measuring blood pressure, and into the left jugular vein for intravenous injection of the test compounds, respectively. After being housed normally in their cages overnight following surgery, the animals were injected with the test solutions without anesthesia. Blood pressure and heart rate were measured immediately before dosing (0 minutes) and at 5, 30, 60, 120 and 240 minutes after dosing. The blood pressure at 0 minutes for each animals was assigned a value of 100, and measured values of blood pressure at each time were then normalized based on that value.

[1] = system: Alzheimer's dementia animal model by continuous intraventricular infusion of β protein; experiment: Step-through passive evasion test in rats with continuous intraventricular infusion of β-amyloid protein (learning and memory ability improvement effect); type: in vivo, Wistar rats
From the text: A step-through passive evasive reaction apparatus composed of two chambers separated by a guillotine door, was used for the experimental apparatus. Namely, one of the chambers was a bright chamber composed of clear acrylic boards (floor: 15 cm×25 cm, height: 15 cm) while the other chamber was a dark chamber (of the same size) composed of black acrylic boards. In addition, stainless steel grids having a diameter of 4 mm were provided at intervals of 15 mm on the floor of the dark room, and connected to a shock generator for applying an electric shock. To begin with, after opening the guillotine door and allowing to freely explore the inside of the apparatus for 1 minute, the door was closed, the rat was placed in the bright chamber as an acquisition trial and the door was opened 30 seconds later. The door was closed after all four limbs of the rat entered the dark chamber followed immediately by the application of an electric shock. […] As a retention trial conducted 24 hours after the acquisition trial, the rat was placed in the bright chamber and the amount of time until all four limbs entered the dark chamber after the guillotine door was opened 30 seconds later was measured (step-through latency). […] The learning and memory ability improvement action of test compound A was measured using the evaluation methods of Reference Examples 1 and 2. […]

C57BL mice = experiment: Toxicity study, single administration into the caudal vein; type: in vivo; conditions: for Mortality: 0.03, 0.3, 3 mg/kg i.v., mice, 14 days observation; for Body weights: 0.03-3 mg/kg i.v., days 1, 3, 7 and 14 after dosing; for General condition starting on the day after dosing: all dose groups, day after dosing through day 14
Protocol: The test compound solutions were administered into the caudal vein at the rate of about 5 ml per minute. […] In addition, body weights were measured immediately before dosing and on days 1, 3, 7 and 14 after dosing.

[2] = 0.03 mg/kg i.v., 5 min. after dosing
[3] = 0.03 mg/kg i.v., 30 min. after dosing
[4] = 0.03 mg/kg i.v., 60 min. after dosing
[5] = 0.03 mg/kg i.v., 2 hr. after dosing
[6] = 0.03 mg/kg i.v., 4 hr. after dosing
[7] = 0.3 mg/kg i.v., 5 min. after dosing
[8] = 0.3 mg/kg i.v., 30 min. after dosing
[9] = 0.3 mg/kg i.v., 60 min. after dosing
[10] = 0.3 mg/kg i.v., 2 hr. after dosing
[11] = 0.3 mg/kg i.v., 4 hr. after dosing
[12] = 3 mg/kg i.v., 5 min. after dosing
[13] = 3 mg/kg i.v., 30 min. after dosing
[14] = 3 mg/kg i.v., 60 min. after dosing
[15] = 3 mg/kg i.v., 2 hr. after dosing
[16] = 3 mg/kg i.v., 4 hr. after dosing

| Structure (SMILES) | Blood pressure (mmHg, ± standard error) (Wistar rats; [2]) | Blood pressure (mmHg, ± standard error) (Wistar rats; [3]) | Blood pressure (mmHg, ± standard error) (Wistar rats; [4]) | Blood pressure (mmHg, ± standard error) (Wistar rats; [5]) | Blood pressure (mmHg, ± standard error) (Wistar rats; [6]) | Blood pressure (mmHg, ± standard error) (Wistar rats; [7]) | Blood pressure (mmHg, ± standard error) (Wistar rats; [8]) | Blood pressure (mmHg, ± standard error) (Wistar rats; [9]) | Blood pressure (mmHg, ± standard error) (Wistar rats; [10]) | Blood pressure (mmHg, ± standard error) (Wistar rats; [11]) | Blood pressure (mmHg, ± standard error) (Wistar rats; [12]) | Blood pressure (mmHg, ± standard error) (Wistar rats; [13]) | Blood pressure (mmHg, ± standard error) (Wistar rats; [14]) | Blood pressure (mmHg, ± standard error) (Wistar rats; [15]) | Blood pressure (mmHg, ± standard error) (Wistar rats; [16]) | Mortality (C57BL mice) | Body weights (C57BL mice) | General condition starting on the day after dosing (C57BL mice) | other results |
| --- | --- | --- | --- | --- | --- | --- | --- | --- | --- | --- | --- | --- | --- | --- | --- | --- | --- | --- | --- |
| COC(=O)CCCCC1=C[C@H]2C[C@@H](O)[C@H](/C=C/[C@@H](O)Cc3cccc(C)c3)[C@H]2C1 [Comparative Test Compound D, (15S)-16-(m-tolyl)-17,18,19,20-tetranorisocarbacycline methyl ester, reference compound] | 88.9 | 92.1 | 96.5 | 97.3 | 99.0 | 49.6 | 78.5 | 94.4 | 93.3 | 99.3 | 55.0 | 60.0 | 81.1 | 103.8 | 115.4 |  |  |  | Duration of decreased blood pressure (Wistar rats; 3 mg/kg and 0.3 mg/kg dose groups, i.v.): ≥ 30 min |
| Cc1cccc(C[C@@H](O)/C=C/[C@H]2[C@H](O)CC3C=C(CCCCC(=O)O)C[C@@H]32)c1 (stereo partly drawn) [Test compound A, (15R)-16-(m-tolyl)-17,18,19,20-tetranorisocarbacycline] |  |  |  |  |  |  |  |  |  |  |  |  |  |  |  |  |  |  | Time until moved to dark chamber during retention trial Mean ± standard error ([1]; β-amyloid protein (1-42) 300 pmol/day + test compound 1.2 fmol/day, intraventricular osmotic pump, max observation 300 sec): 265.7 ± 32.6 (n = 6) sec.; Learning and memory ability improvement action ([1]; β-amyloid protein (1-42) infused rats, overall conclusion): improved learning and memory ability |
| COC(=O)CCCCC1=C[C@H]2C[C@@H](O)[C@H](/C=C/[C@H](O)Cc3cccc(C)c3)[C@H]2C1 [Test compound B, (15R)-16-(m-tolyl)-17,18,19,20-tetranorisocarbacycline methyl ester] | 105.8 | 103.4 | 103.6 | 104.5 | 100.5 | 92.9 | 97.7 | 97.7 | 98.5 | 98.0 | mild decrease | 99.4 | 101.9 | 102.7 | 101.0 | none of the animals died | no significant fluctuations | no abnormalities observed in any of the groups | Blood pressure change immediately after dosing (Wistar rats; 3 mg/kg dose group, i.v.): decrease in blood pressure; Heart rate change immediately after dosing (Wistar rats; 3 mg/kg dose group, i.v.): increase in heart rate; Time after dosing at which blood pressure and heart rate returned to normal (Wistar rats; 3 mg/kg dose group, i.v.): 30 min; Blood pressure (mmHg, ± standard error) (Wistar rats; 3 mg/kg i.v., 5 min. after dosing, listed as Test comp. B): 80.4; Fluctuations in blood pressure and heart rate (Wistar rats; 0.3 and 0.03 mg/kg dose groups, i.v.): no significant fluctuations; Effect on the circulatory system (overall conclusion) (Wistar rats; rats, i.v. 0.03-3 mg/kg): extremely mild effect; Time until decreased movement disappeared after dosing (C57BL mice; 3 mg/kg dose group, i.v.): ≤ 30 min; General condition on the day of dosing (C57BL mice; 3 mg/kg dose group, i.v., starting immediately after dosing): decreased movement |
| COC(=O)CCCCC1=C[C@H]2C[C@@H](O)[C@H](/C=C/CCc3cccc(C)c3)[C@H]2C1 [Test compound C, 15-deoxy-16-(m-tolyl)-17,18,19,20-tetranorisocarbacycline methyl ester] |  |  |  |  |  |  |  |  |  |  |  |  |  |  |  | none of the animals died | no significant fluctuations | no abnormalities observed in any of the groups | General condition on the day of dosing (C57BL mice; all dose groups (0.03, 0.3, 3 mg/kg i.v.)): no abnormalities observed in any of the groups |
